Data as given in patent US20250353848A1, “HETEROCYCLIC PAD4 INHIBITORS” (Celgene Corporation, priority 2022, published 2025).

What follows are compounds tested against hPAD4 enzyme (Homo sapiens, UniProt Q9UM07) (assay: RFMS Assay 1 (rapid-fire mass spectrum PAD4 inhibition assay, BAEE substrate)). Settings: 5 nM hPAD4 enzyme, 250 μM BAEE, 30 mins compound and enzyme preincubation at 37° C., 90 min enzyme/substrate reaction.
Format: biochemical
Description: Compounds were solubilized in 100% DMSO to achieve a 10 mM compound concentration. Compound stock solutions were stored at RT. A series of dilutions were prepared in DMSO and mixed 8 times with 20 μL mixing volume. Final top concentration of compound in the assay is 50 μM. Final assay conditions were as follows: • Reaction volume: 26 μl • Assay buffer: 25 mM hepes, pH 7.5, 5 mM NaCl, 1 mM DTT, 0.2 mg/ml BSA, 0.01% CHAPS, 50 μM Calcium, and 5 μM TPEN • Final concentrations: 5 nM hPAD4 enzyme, 250 μM BAEE, and 0.5% DMSO • Total incubation time: 30 mins compound and enzyme preincubation at 37° C., 90 min enzyme/substrate reaction, 30 min reaction with phenyl glyoxal at 37° C. • Stop solution: 40 μl 5% TCA in ACN
0.13 μL of compound solution was added to 13 μL of 10 nM PAD4 in assay buffer. After 30 min 13 μl of 500 μM of BAEE was added in 25 mM hepes, pH 7.5, 5 mM NaCl, 1 mM DTT, 0.2 mg/ml BSA, 0.01% CHAPS, 50 µM Calcium, […] was added and the reaction incubated for 90 min at 37° C. The enzymatic reaction was quenched by addition of 15 μl of 6.1N TCA, 100% Final Concentration is 20%, 35 μl of 8.5 mM phenyl glyoxal (final concentration 4 mM) is then added and the reaction is incubated for 30 min at 37° C.
After 30 minutes the plates are spun down to remove all precipitate. The enzyme reaction was quenched with an equal volume of methanol containing internal standard (modified citrulline). Samples were loaded onto the Rapid Fire RF300 system (Agilent) wherein they were first sipped for 1000 ms and then directly loaded to a C18 separations cartridge using a mixture of acetonitrile containing 0.01% formic acid for 3000 ms desalting. The flow rate of the mobile phase was 1.5 ml/min. Once the samples were eluted from the cartridge, a mobile phase of acetonitrile containing 0.01% formic acid was used to move the samples into the mass spectrometer for 4000 ms at a flow rate of 1.25 ml/min/Sciex AP15500 triple quadrupole mass spectrometer (Applied Biosystems) equipped with ESI was used to analyze the peptidyl citrulline and internal standard ions.
MRM transition of product and internal standard were monitored at m/z 424.5 to 350.4 and m/z 293 to 247 respectively. The dwell time for each transition was set at 200 ms, and the ESI voltage was used at 5500 with a source temperature of 400° C. Extracted ion peaks for each transition were integrated using the Rapid Fire Integrator software. Peak area of analyte was normalized with internal standard.).

Chain of hPAD4 enzyme (Q9UM07 whole entry): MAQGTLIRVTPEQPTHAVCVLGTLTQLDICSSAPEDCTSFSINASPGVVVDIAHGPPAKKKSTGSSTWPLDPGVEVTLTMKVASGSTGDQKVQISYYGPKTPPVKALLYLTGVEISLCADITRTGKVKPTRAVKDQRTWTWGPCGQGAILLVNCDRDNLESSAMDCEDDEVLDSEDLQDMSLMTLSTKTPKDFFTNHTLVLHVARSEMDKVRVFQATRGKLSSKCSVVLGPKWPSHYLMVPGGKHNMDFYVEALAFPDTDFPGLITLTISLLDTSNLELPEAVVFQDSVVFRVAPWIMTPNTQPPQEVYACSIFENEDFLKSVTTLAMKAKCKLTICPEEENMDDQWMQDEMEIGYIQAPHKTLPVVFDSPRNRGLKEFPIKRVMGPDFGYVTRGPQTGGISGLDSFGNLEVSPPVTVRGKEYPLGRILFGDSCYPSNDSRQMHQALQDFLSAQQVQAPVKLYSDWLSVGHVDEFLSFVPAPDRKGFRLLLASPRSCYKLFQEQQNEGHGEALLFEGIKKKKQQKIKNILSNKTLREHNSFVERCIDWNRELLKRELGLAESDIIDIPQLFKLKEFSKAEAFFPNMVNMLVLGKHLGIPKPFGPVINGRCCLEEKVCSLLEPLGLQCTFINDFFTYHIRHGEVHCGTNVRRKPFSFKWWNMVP

Structure (SMILES) | IC50 [nM]
Cn1c(-c2cc3cccc(OC(F)Cn4cnc(F)c4)c3n2CC2CC2)nc2cc3c(nc21)CCN(C[C@H](N)CF)C3=O (single isomer, unassigned) [Example 73a] | ≤ 10
C[C@@H](Cn1cnc(F)c1)Oc1cccc2cc(-c3nc4cc5c(nc4n3C)CCN(C[C@H](N)CF)C5=O)n(CC3CC3)c12 [Example 66, 7-((S)-2-amino-3-fluoropropyl)-2-(1-(cyclopropylmethyl)-7-(((S)-1-(4-fluoro-1H-imidazol-1-yl)propan-2-yl)oxy)-1H-indol-2-yl)-3-methyl-3,5,6,7-tetrahydro-8H-imidazo[4,5-b][1,6]naphthyridin-8-one] | ≤ 10
Cn1c(-c2cc3cccc(OCC(O)c4cnco4)c3n2CC2CC2)nc2cc3c(nc21)CCN(C[C@H](N)CF)C3=O (single isomer, unassigned) [Example 61a] | 101 to 500
COc1cccc2cc(-c3nc4cc5c(nc4n3C)CCN(C[C@H]3COCCN3)C5=O)n(CCOC(F)F)c12 [Example 28, (S)-2-(1-(2-(difluoromethoxy)ethyl)-7-methoxy-1H-indol-2-yl)-3-methyl-7-(morpholin-3-ylmethyl)-3,5,6,7-tetrahydro-8H-imidazo[4,5-b][1,6]naphthyridin-8-one] | 501 to 1000
CC(C(F)Oc1cccc2cc(-c3nc4cc5c(nc4n3C)CCN(C[C@H](N)CF)C5=O)n(CC3CC3)c12)n1ccnc1 (single isomer, unassigned) [Example 78a] | 11 to 100
Cn1c(-c2cc3cccc(OCCc4cccnc4)c3n2CC2CC2)nc2cc3c(nc21)CCN(C[C@H](N)CF)C3=O [Example 56, (S)-7-(2-amino-3-fluoropropyl)-2-(1-(cyclopropylmethyl)-7-(2-(pyridin-3-yl)ethoxy)-1H-indol-2-yl)-3-methyl-3,5,6,7-tetrahydro-8H-imidazo[4,5-b][1,6]naphthyridin-8-one] | ≤ 10
Cn1c(-c2cc3cccc(OC(C)(F)Cn4ccnc4)c3n2CC2CC2)nc2cc3c(nc21)CCN(C[C@H](N)CF)C3=O (single isomer, unassigned) [Example 76b] | 11 to 100
CC(COc1cccc2cc(-c3nc4cc5c(nc4n3C)CCN(C[C@H](N)CF)C5=O)n(CC3CC3)c12)c1cccnc1 (single isomer, unassigned) [Example 45b] | ≤ 10
C[C@@H](Cn1ccnc1)Oc1cccc2cc(-c3nc4cc5c(nc4n3C)CCN(C[C@H](N)CF)C5=O)n(CC3CC3)c12 [Example 63, 2-(7-(((S)-1-(1H-imidazol-1-yl)propan-2-yl)oxy)-1-(cyclopropylmethyl)-1H-indol-2-yl)-7-((S)-2-amino-3-fluoropropyl)-3-methyl-3,5,6,7-tetrahydro-8H-imidazo[4,5-b][1,6]naphthyridin-8-one] | 11 to 100
C[C@H](COc1nccc2cc(-c3nc4cc5c(nc4n3C)CCN(C[C@H](N)CF)C5=O)n(CC3CC3)c12)n1cnc(F)c1 [Example 83, 7-((S)-2-amino-3-fluoropropyl)-2-(1-(cyclopropylmethyl)-7-((R)-2-(4-fluoro-1H-imidazol-1-yl)propoxy)-1H-pyrrolo[2,3-c]pyridin-2-yl)-3-methyl-3,5,6,7-tetrahydro-8H-imidazo[4,5-b][1,6]naphthyridin-8-one] | ≤ 10
Cn1c(-c2cc3cccc(OCCn4ccnc4Cl)c3n2CC2CC2)nc2cc3c(nc21)CCN(C[C@H](N)CF)C3=O [Example 93, (S)-7-(2-amino-3-fluoropropyl)-2-(7-(2-(2-chloro-1H-imidazol-1-yl)ethoxy)-1-(cyclopropylmethyl)-1H-indol-2-yl)-3-methyl-3,5,6,7-tetrahydro-8H-imidazo[4,5-b][1,6]naphthyridin-8-one] | 11 to 100
Cc1nnc(CCOc2cccc3cc(-c4nc5cc6c(nc5n4C)CCN(C[C@H](N)CF)C6=O)n(CC4CC4)c23)s1 [Example 55, (S)-7-(2-amino-3-fluoropropyl)-2-(1-(cyclopropylmethyl)-7-(2-(5-methyl-1,3,4-thiadiazol-2-yl)ethoxy)-1H-indol-2-yl)-3-methyl-3,5,6,7-tetrahydro-8H-imidazo[4,5-b][1,6]naphthyridin-8-one] | 101 to 500
